Results as given in PubChem BioAssay (NCI).
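Five concentrations, 48 hours, 96-well plates. GI50: concentration for 50% inhibition of growth. TGI: total growth inhibition.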

Tests used:
Test in all cases: growth of human tumour cells (NCI), 48 h
DU-145 prostate = test system: DU-145 prostate
HT29 colon = test system: HT29 colon
M14 melanoma = test system: M14 melanoma
MDA-MB-435 = test system: MDA-MB-435
SF-539 CNS = test system: SF-539 CNS
SK-MEL-2 melanoma = test system: SK-MEL-2 melanoma
SK-MEL-28 melanoma = test system: SK-MEL-28 melanoma
MALME-3M melanoma = test system: MALME-3M melanoma

Structure (SMILES) | GI50 (DU-145 prostate) | GI50 (HT29 colon) | TGI (HT29 colon) | TGI (M14 melanoma) | GI50 (MDA-MB-435) | TGI (MDA-MB-435) | GI50 (SF-539 CNS) | TGI (SF-539 CNS) | GI50 (SK-MEL-2 melanoma) | GI50 (SK-MEL-28 melanoma) | TGI (DU-145 prostate) | TGI (MALME-3M melanoma) | TGI (SK-MEL-2 melanoma) | TGI (SK-MEL-28 melanoma) | GI50 (M14 melanoma) | GI50 (MALME-3M melanoma)
COc1cc(C(=O)O[C@H](C(=O)NCCCCCNC(=O)[C@@H](OC(=O)c2cc(OC)cc3c(C)cccc23)[C@]2(C)CO2)[C@]2(C)CO2)c2cccc(C)c2c1 | 0.122 µM | 0.182 µM | > 100 µM | 0.305 µM | 0.016 µM | 0.0913 µM | 0.119 µM | 0.587 µM | 0.2 µM | 0.205 µM | – | – | – | – | – | –
N#CC(NC12CC3CC(CC(C3)C1)C2)c1ccc2c(c1)OCO2 (configuration not stated) | – | – | > 100 µM | > 100 µM | – | > 100 µM | – | > 100 µM | – | – | > 100 µM | > 100 µM | > 100 µM | > 100 µM | – | –
CC(C)N(Cc1ccccc1)c1c(S)ssc1=S | 3.15 µM | 2.29 µM | 9.59 µM | > 100 µM | 0.694 µM | 18.5 µM | 3.06 µM | 10.4 µM | 3.53 µM | 2.09 µM | 28.7 µM | 5.99 µM | 31.1 µM | 17.8 µM | 4.67 µM | 1.65 µM
COc1cc(NC(C)CCCNC2CN3CCC2CC3)c2ncccc2c1 (configuration not stated) | 16.4 µM | 3.7 µM | 14 µM | 13.5 µM | 8.71 µM | 22 µM | 15.2 µM | 30.5 µM | 23.3 µM | 11.3 µM | 30.2 µM | 24.3 µM | 52.4 µM | 23.7 µM | 3.92 µM | 10 µM
COc1cc([N+](=O)[O-])c(OC)cc1-c1nc2sc(Cl)cn2c1/C(N)=N/C(=N)N | 7.2 µM | 3.02 µM | > 100 µM | 13 µM | 1.9 µM | 4.64 µM | 4.53 µM | 50.8 µM | – | – | 27.9 µM | 26.6 µM | – | – | 3.51 µM | 5.71 µM
CC(C)(C)n1cc(-c2ccnc(NCCCNS(=O)(=O)c3ccc(C(F)(F)F)cc3)c2)c(-c2cccc(O)c2)n1 | 1.94 µM | – | – | 3.93 µM | 1.81 µM | 3.35 µM | 1.65 µM | 3.09 µM | 2.1 µM | 1.75 µM | 3.58 µM | 3.38 µM | 3.95 µM | 3.25 µM | 2 µM | 1.72 µM
COc1cc([C@@H]2OC[C@@H]3C(c4cc(OC)c5c(c4)OCO5)OC[C@@H]32)cc(OC)c1OC (some centres not stated) | – | – | > 100 µM | > 100 µM | – | > 100 µM | – | > 100 µM | – | – | > 100 µM | – | > 100 µM | > 100 µM | – | –
CN(CCCn1c2c(c3ccccc3c1=O)C(=O)c1ccccc1-2)CCCn1c2c(c3ccccc3c1=O)C(=O)c1ccccc1-2 | – | – | – | > 22.6 µM | 1.56 µM | 17.8 µM | 0.181 µM | 0.75 µM | 27.6 µM | 1.28 µM | – | 28.4 µM | > 51.8 µM | – | 2.31 µM | 1.08 µM
O=C(O)C(/C=C/c1ccccc1)c1ccccc1 (configuration not stated) | – | – | > 100 µM | > 100 µM | – | – | – | > 100 µM | – | – | > 100 µM | > 100 µM | > 100 µM | > 100 µM | – | –
O=C(O)CNC(=O)c1ccc(-c2ccccc2)cc1 | – | – | – | > 100 µM | – | > 100 µM | – | > 100 µM | – | – | > 100 µM | > 100 µM | > 100 µM | > 100 µM | – | –
O=C([CH-]C(=O)c1ccccc1)c1ccccc1.O=C([CH-]C(=O)c1ccccc1)c1ccccc1.[La+3].[OH-].[OH3+] | – | 19.4 µM | 50.1 µM | 37.6 µM | – | – | – | – | 15.1 µM | 17.1 µM | – | 69.5 µM | 37.8 µM | 57.2 µM | 16.8 µM | 23 µM
COc1ccc(/C(COc2ccc3c(=O)cc(-c4ccccc4)oc3c2)=N\O)cc1 | 11.5 µM | 25.6 µM | > 50 µM | > 50 µM | 6.77 µM | 23.9 µM | 12.8 µM | 24.3 µM | 13.3 µM | 19.5 µM | > 47.4 µM | – | > 39.1 µM | > 41.9 µM | 29.1 µM | –
COc1cc2c(cc1C)NC(=O)/C2=C/c1ccccn1 | – | 5.47 µM | > 100 µM | > 100 µM | 3.77 µM | > 100 µM | 0.024 µM | 2.47 µM | > 100 µM | 10.5 µM | – | – | > 100 µM | > 100 µM | 3.8 µM | –
Fc1ccc2c(c1)C1=NN(c3ccccc3)C(F)C1CO2 (configuration not stated) | 5.18 µM | 10 µM | 26.3 µM | 18.6 µM | 6.7 µM | 15.9 µM | 6.62 µM | 14.9 µM | 19.4 µM | 9.51 µM | 21.8 µM | – | > 50 µM | 22 µM | 8.16 µM | –
COc1ccc2nc3cccc([N+](=O)[O-])c3c(NCCCCCC(=O)O)c2c1 | 0.043 µM | 0.014 µM | 0.392 µM | 0.0466 µM | – | – | 0.404 µM | 1.44 µM | 0.0342 µM | 0.159 µM | 1.02 µM | 0.194 µM | 0.117 µM | 0.548 µM | 0.015 µM | 0.0437 µM
